Assays:
[1] = target: hNAMPT protein (Homo sapiens (Human), UniProt P43490); experiment: NAMPT enzyme assay (TR-FRET/HTRF, BodiPY ligand, anti 6His-Tb); assay type: binding; conditions: for IC50: NAMPT IC50 range class, read-out: IC50; for inhibition at 1 µM: compound concentration 1 μM, read-out: Percent Inhibition
How it was run: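 Compound or DMSO was incubated for 1 h at room temperature, protected from light, with BodiPY ligand and hNAMPT labelled by terbium anti-6His antibody. The 520 nm to 486 nm emission ratio after 320 nm excitation gave inhibition versus vehicle, from which concentration-response curves yielded IC50.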

[2] = system: PC3 cells; experiment: PC3 growth inhibition (Cell-titer glo, 72 hours); assay type: cell-based; conditions: Homo sapiens, PC-3, PC3 cells, 72 hours, Cell-titer glo, read-out: Percent Inhibition (PC3 growth inhibition); for inhibition at 1.667 µM: compound concentration 1.667 μM; for inhibition at 1 µM: compound concentration 1 μM
How it was run: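 Compounds in AIM serum-free medium were applied for 72 h at 37 °C, 5% CO2 to PC3 cells plated overnight from RPMI1640 culture. Luminescence after 10 min CellTiter-Glo, normalised to DMSO, gave % viability at 1 μM or 1.667 μM, or GI50/LD50.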

Chain of hNAMPT protein (P43490 whole entry): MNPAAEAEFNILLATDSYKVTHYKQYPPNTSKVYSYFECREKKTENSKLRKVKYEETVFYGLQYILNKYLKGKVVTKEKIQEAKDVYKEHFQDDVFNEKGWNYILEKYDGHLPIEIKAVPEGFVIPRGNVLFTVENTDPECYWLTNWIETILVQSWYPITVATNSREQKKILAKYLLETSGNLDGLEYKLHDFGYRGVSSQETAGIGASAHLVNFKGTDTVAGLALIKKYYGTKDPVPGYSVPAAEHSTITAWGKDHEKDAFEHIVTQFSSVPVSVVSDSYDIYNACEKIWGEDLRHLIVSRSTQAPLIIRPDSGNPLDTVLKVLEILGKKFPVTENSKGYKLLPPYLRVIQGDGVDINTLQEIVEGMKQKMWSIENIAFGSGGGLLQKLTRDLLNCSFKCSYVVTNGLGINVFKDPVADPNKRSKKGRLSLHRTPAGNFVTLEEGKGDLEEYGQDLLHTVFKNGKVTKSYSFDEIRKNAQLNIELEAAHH

| Structure (SMILES) | IC50 [1] | inhibition at 1 µM [1] | inhibition at 1.667 µM [2] | inhibition at 1 µM [2] |
| --- | --- | --- | --- | --- |
| COc1cccc(-c2nc3cc(C(=O)NCCc4cccnc4)ccc3nc2N2CCC(N3CCOCC3)CC2)c1 [Compound I-291, 3-(3-Methoxyphenyl)-2-[4-(morpholin-4-yl)piperidin-1-yl]-N-[2-(pyridin-3-yl)ethyl]quinoxaline-6-carboxamide] | < 100 nM | 98% | 2% |  |
| Cn1cncc1CCNC(=O)c1ccc2nc(N3CCC(O)CC3)c(-c3ccc(F)cc3)nc2c1 [Compound I-292, 3-(4-fluorophenyl)-2-(4-hydroxypiperidin-1-yl)-N-[2-(1-methyl-1H-imidazol-5-yl)ethyl]quinoxaline-6-carboxamide] | < 100 nM | 90% | 2% |  |
| Cn1cc2c(n1)CN(c1nc3cc(C(=O)NCCCn4ccnc4)ccc3nc1-c1ccccc1)CC2 [Compound I-295, N-[3-(1H-imidazol-1-yl)propyl]-3-(2-methyl-2,4,5,7-tetrahydro-6H-pyrazolo[3,4-c]pyridin-6-yl)-2-phenylquinoxaline-6-carboxamide] | 1000 to 2000 nM | 49% |  | -6% |
| O=C(NCCCn1ccnc1)c1ccc2nc(N3CCn4ccnc4C3)c(-c3ccccc3)nc2c1 [Compound I-296, 2-(5,6-dihydroimidazo[1,2-a]pyrazin-7(8H)-yl)-N-[3-(1H-imidazol-1-yl)propyl]-3-phenylquinoxaline-6-carboxamide] | 500 to 1000 nM | 67% |  | -7% |
| O=C(NCCCc1cn[nH]c1)c1ccc2nc(N3CCOCC3)c(-c3ccc(F)cc3)nc2c1 [Compound I-297, 3-(4-Fluorophenyl)-2-(morpholin-4-yl)-N-[3-(1H-pyrazol-4-yl)propyl]quinoxaline-6-carboxamide] | 100 to 500 nM | 88% | 2% |  |
| O=C(NCCCc1ncc[nH]1)c1ccc2nc(N3CCC(O)CC3)c(-c3ccc(Cl)cc3)nc2c1 [Compound I-298, 3-(4-chlorophenyl)-2-(4-hydroxypiperidin-1-yl)-N-[3-(1H-imidazol-2-yl)propyl]quinoxaline-6-carboxamide] | < 100 nM | > 99% | 2% |  |
| O=C(NCc1ccc2nccn2c1)c1ccc2nc(-c3ccc(F)cc3)c(-c3ccc(F)cc3)nc2c1 [Compound I-299, 2,3-bis(4-fluorophenyl)-N-(imidazo[1,2-a]pyridin-6-ylmethyl)quinoxaline-6-carboxamide] | 100 to 500 nM | 76% | 2% |  |
| O=C(NCCCc1ncc[nH]1)c1ccc2nc(C3=CCOCC3)c(-c3cccs3)nc2c1 [Compound I-300, 2-(3,6-dihydro-2H-pyran-4-yl)-N-[3-(1H-imidazol-2-yl)propyl]-3-(2-thienyl)quinoxaline-6-carboxamide] | < 100 nM | > 99% | 32% |  |
| O=C(NCCCc1c[nH]cn1)c1ccc2nc(N3CCCCC3)c(-c3ccc(F)cc3)nc2c1 [Compound I-301, 3-(4-Fluorophenyl)-N-[3-(1H-imidazol-4-yl)propyl]-2-(piperidin-1-yl)quinoxaline-6-carboxamide] | < 100 nM | 99% | 2% |  |
| O=C(NCCc1cnc2ccccn12)c1ccc2nc(-c3ccc(F)cc3)c(-c3ccc(F)cc3)nc2c1 [Compound I-302, 2,3-bis(4-fluorophenyl)-N-[2-(imidazo[1,2-a]pyridin-3-yl)ethyl]quinoxaline-6-carboxamide] | 500 to 1000 nM | 63% |  | 87% |
| Cn1ccc2c1CN(C(=O)c1ccc3nc(-c4ccc(F)cc4)c(-c4ccc(F)cc4)nc3c1)CC2 [Compound I-303, [2,3-bis(4-fluorophenyl)quinoxalin-6-yl](1-methyl-1,4,5,7-tetrahydro-6H-pyrrolo[2,3-c]pyridin-6-yl)methanone] | 2000 to 10000 nM | 15% |  | 95% |
| COc1nn(C)c2c1CN(C(=O)c1ccc3nc(-c4ccc(F)cc4)c(-c4ccc(F)cc4)nc3c1)CC2 [Compound I-304, [2,3-bis(4-fluorophenyl)quinoxalin-6-yl](3-methoxy-1-methyl-1,4,6,7-tetrahydro-5H-pyrazolo[4,3-c]pyridin-5-yl)methanone] | 2000 to 10000 nM | 17% |  | 92% |
| O=C(NCCCc1ncc[nH]1)c1ccc2nc(-n3ncc4ccccc43)c(-c3ccc(F)cc3)nc2c1 [Compound I-305, 3-(4-fluorophenyl)-N-[3-(1H-imidazol-2-yl)propyl]-2-(1H-indazol-1-yl)quinoxaline-6-carboxamide] | < 100 nM | 93% | 3% |  |
| Cc1c(F)cc(-c2nc3cc(C(=O)NCCCc4ncc[nH]4)ccc3nc2-c2ccc(F)cc2)cc1F [Compound I-306, 3-(3,5-difluoro-4-methylphenyl)-2-(4-fluorophenyl)-N-[3-(1H-imidazol-2-yl)propyl]quinoxaline-6-carboxamide] | 500 to 1000 nM | 60% | 3% |  |
| CCc1nc2ccc(C(=O)NCCCc3ncc[nH]3)cc2nc1-c1ccc(F)cc1 [Compound I-307, 2-ethyl-3-(4-fluorophenyl)-N-[3-(1H-imidazol-2-yl)propyl]quinoxaline-6-carboxamide] | 100 to 500 nM | 73% | 4% |  |
| NS(=O)(=O)c1cccc(-c2nc3cc(C(=O)NCCCc4ncc[nH]4)ccc3nc2-c2ccc(F)cc2)c1 [Compound I-308, 2-(4-fluorophenyl)-N-[3-(1H-imidazol-2-yl)propyl]-3-(3-sulfamoylphenyl)quinoxaline-6-carboxamide] | 100 to 500 nM | 89% | 4% |  |
| Cc1cc(-c2nc3cc(C(=O)NCCCc4ncc[nH]4)ccc3nc2-c2ccc(F)cc2)cnc1Cl [Compound I-309, 3-(6-chloro-5-methylpyridin-3-yl)-2-(4-fluorophenyl)-N-[3-(1H-imidazol-2-yl)propyl]quinoxaline-6-carboxamide] | 100 to 500 nM | 86% | 3% |  |
| CC(C)Oc1nc2ccc(C(=O)NCCCc3nnc[nH]3)cc2nc1-c1ccc(F)cc1 [Compound I-310, 3-(4-fluorophenyl)-2-isopropoxy-N-[3-(4H-1,2,4-triazol-3-yl)propyl]quinoxaline-6-carboxamide] | 500 to 1000 nM | 62% | 4% |  |
| Cc1ccc(-c2nc3cc(C(=O)NCCCc4ncc[nH]4)ccc3nc2-c2ccc(F)cc2)cc1F [Compound I-311, 3-(3-fluoro-4-methylphenyl)-2-(4-fluorophenyl)-N-[3-(1H-imidazol-2-yl)propyl]quinoxaline-6-carboxamide] | 100 to 500 nM | 76% | 2% |  |
| O=C(NCCCc1ncc[nH]1)c1ccc2nc(-c3ccc(F)cc3)c(-c3cccc(Cl)c3F)nc2c1 [Compound I-312, 3-(3-chloro-2-fluorophenyl)-2-(4-fluorophenyl)-N-[3-(1H-imidazol-2-yl)propyl]quinoxaline-6-carboxamide] | < 100 nM | 94% | 2% |  |
| O=C(NCCCc1ncc[nH]1)c1ccc2nc(-c3ccc(F)cc3)c(-c3ccccc3F)nc2c1 [Compound I-313, 3-(2-fluorophenyl)-2-(4-fluorophenyl)-N-[3-(1H-imidazol-2-yl)propyl]quinoxaline-6-carboxamide] | 100 to 500 nM | 86% | 2% |  |
| O=C(NCCCc1ncc[nH]1)c1ccc2nc(OCC3CCCCC3)c(-c3ccc(F)cc3)nc2c1 [Compound I-314, 2-(cyclohexylmethoxy)-3-(4-fluorophenyl)-N-[3-(1H-imidazol-2-yl)propyl]quinoxaline-6-carboxamide] | < 100 nM | 91% | 3% |  |
| O=C(NCCCc1ncc[nH]1)c1ccc2nc(-c3ccc(Cl)cc3)c(-c3ccc(Cl)cc3)nc2c1 [Compound I-315, 2,3-bis(4-chlorophenyl)-N-[3-(1H-imidazol-2-yl)propyl]quinoxaline-6-carboxamide] | 100 to 500 nM | 88% | 1% |  |
| O=C(NCCCc1ncc[nH]1)c1ccc2nc(OCC3CC(F)(F)C3)c(-c3ccc(F)cc3)nc2c1 [Compound I-316, 2-[(3,3-difluorocyclobutyl)methoxy]-3-(4-fluorophenyl)-N-[3-(1H-imidazol-2-yl)propyl]quinoxaline-6-carboxamide] | < 100 nM | 98% | 2% |  |
| COc1cc(-c2nc3cc(C(=O)NCc4ccc5nccn5c4)ccc3nc2OC(C)C)c(F)cn1 [Compound I-317, 3-(5-fluoro-2-methoxypyridin-4-yl)-N-(imidazo[1,2-a]pyridin-6-ylmethyl)-2-isopropoxyquinoxaline-6-carboxamide] | 100 to 500 nM | 66% | 1% |  |
| O=C(NCCCc1ncc[nH]1)c1ccc2nc(OC3COC3)c(-c3ccc(Cl)cc3)nc2c1 [Compound I-318, 3-(4-chlorophenyl)-N-[3-(1H-imidazol-2-yl)propyl]-2-(oxetan-3-yloxy)quinoxaline-6-carboxamide] | < 100 nM | 97% | 2% |  |
